Results as given in ChEMBL document CHEMBL1772989, “Non-peptide metabolites from the genus Bacillus” (J Nat Prod, 2011).

Tests used:
Pseudomonas aeruginosa = assay: Antibacterial activity against Pseudomonas aeruginosa ATCC 14210; assay type: functional
Staphylococcus aureus = assay: Antibacterial activity against Staphylococcus aureus ATCC 10832; assay type: functional

## CC(C)CCCCCCCC(=O)N[C@@H](CC(N)=O)C(=O)O [LIPOAMIDE A]
Pseudomonas aeruginosa
  MIC: > 100 µg/mL
Staphylococcus aureus
  MIC: > 100 µg/mL

## CC(C)CCCCCCCCC(=O)N[C@@H](CC(N)=O)C(=O)O [LIPOAMIDE B]
Pseudomonas aeruginosa
  MIC: > 100 µg/mL
Staphylococcus aureus
  MIC: > 100 µg/mL

## CC(C)CCCCCCCCCC(=O)N[C@@H](CC(N)=O)C(=O)O [LIPOAMIDE C]
Pseudomonas aeruginosa
  MIC: > 100 µg/mL
Staphylococcus aureus
  MIC: > 100 µg/mL
